In brackets after ≈: the same amount, converted by molar mass. Several values for one entry are separate records, joined by “and”; a condition that tells them apart may be missing. Equal values may be shown once. Blank lines part the entries; values can stand above or below the compound they belong to.
Columns and labels:
Assay in all cases: ≥ marks a high value that may be exact or a test limit, other limits are often not marked, values filed in µg/mL are converted to µM
[1] = system: Pseudomonas aeruginosa ATCC 9027
[2] = system: Staphylococcus aureus ATCC 6538
[3] = system: Candida albicans ATCC 90028
[4] = system: Escherichia coli ATCC 25922
[5] = system: Pseudomonas aeruginosa ATCC 27853
[6] = system: Staphylococcus aureus ATCC 29213
[7] = system: Bacillus subtilis ATCC 6633
[8] = system: Staphylococcus aureus ATCC 25923
[9] = system: Candida albicans ATCC 2002
[10] = system: Pseudomonas aeruginosa PAO1
[11] = system: Staphylococcus aureus ATCC 43300
Bacillus subtilis = system: Bacillus subtilis
Escherichia coli = system: Escherichia coli

SMILES: CC[C@H](C)[C@H](NC(=O)[C@H](CC(C)C)NC(=O)[C@H](CCCCN)NC(=O)[C@H](CCCCN)NC(=O)[C@H](C)NC(=O)[C@H](CC(C)C)NC(=O)[C@H](CCCCN)NC(=O)[C@H](CCCCN)NC(=O)[C@H](CC(C)C)NC(=O)[C@H](CCCCN)NC(=O)[C@H](CCCCN)NC(=O)[C@H](C)NC(=O)[C@H](CC(C)C)NC(=O)[C@H](CCCCN)NC(=O)[C@H](CCCCN)NC(=O)[C@H](C)NC(=O)[C@@H](N)Cc1ccccc1)C(=O)NCC(=O)N[C@@H](C)C(=O)N[C@H](C(=O)N[C@@H](CC(C)C)C(=O)N[C@@H](CCCCN)C(=O)N[C@H](C(=O)O)C(C)C)C(C)C [FAKKLAKKLKKLAKKLIGAVLKV]
MIC [1]: > 78.8 µM
MIC [2]: 39.4 µM (≈ 100 µg/mL)

SMILES: CC[C@H](C)[C@H](NC(=O)[C@H](CCCCN)NC(=O)[C@H](Cc1cnc[nH]1)NC(=O)[C@H](CC(N)=O)NC(=O)[C@H](Cc1c[nH]c2ccccc12)NC(=O)CNC(=O)[C@H](C)NC(=O)[C@H](CO)NC(=O)[C@@H](NC(=O)[C@@H](NC(=O)[C@@H](N)CS)C(C)C)[C@@H](C)CC)C(=O)N[C@@H](CCCN=C(N)N)C(=O)N[C@H]1CSSC[C@@H](C(=O)O)NC(=O)[C@H](CC(N)=O)NC(=O)CNC(=O)[C@H]([C@@H](C)O)NC(=O)[C@H](CC(C)C)NC(=O)[C@H](CCCCN)NC1=O [CVISAGWNHKIRCKLTGNC]
MIC [5]: 11.9 µM (≈ 25 µg/mL)
MIC [10]: 11.9 µM (≈ 25 µg/mL)
MIC [8]: 23.8 µM (≈ 50 µg/mL)
MIC [11]: 23.8 µM (≈ 50 µg/mL)

SMILES: CC[C@H](C)[C@H](NC(=O)CNC(=O)[C@H](C)NC(=O)[C@H](C)NC(=O)[C@@H](NC(=O)[C@H](CCCCN)NC(=O)[C@H](CC(C)C)NC(=O)[C@@H](NC(=O)[C@@H]1CCCN1C(=O)CNC(=O)[C@@H](NC(=O)[C@@H](N)Cc1ccccc1)C(C)C)C(C)C)[C@@H](C)CC)C(=O)N[C@@H](CC(C)C)C(=O)N1CCC[C@H]1C(=O)N[C@H](C(=O)N[C@@H](C)C(=O)N[C@H](C(=O)N[C@H]1CSSC[C@@H](C(=O)O)NC(=O)[C@H](CCCCN)NC(=O)[C@H](CCCCN)NC(=O)[C@H](Cc2ccc(O)cc2)NC(=O)[C@H]([C@@H](C)CC)NC(=O)[C@H](CCCCN)NC1=O)[C@@H](C)CC)[C@@H](C)O [FVGPVLKIAAGILPTAICKIYKKC]
MIC (Bacillus subtilis): 0.919 µM (≈ 2.34 µg/mL)
MIC [9]: 0.919 µM (≈ 2.34 µg/mL)
MIC [8]: 0.459 µM (≈ 1.17 µg/mL)
MIC [11]: 3.68 µM (≈ 9.37 µg/mL)

SMILES: CC(C)C[C@H](NC(=O)[C@H](C)NC(=O)[C@H](Cc1c[nH]c2ccccc12)NC(=O)CNC(=O)[C@H](CCCN=C(N)N)NC(=O)[C@@H](N)CCCN=C(N)N)C(=O)N[C@@H](CCCN=C(N)N)C(=O)N[C@@H](CC(C)C)C(=O)N[C@H](C(=O)N[C@@H](CC(C)C)C(=O)N[C@@H](C)C(=O)N[C@@H](Cc1ccc(O)cc1)C(N)=O)C(C)C [RRGWALRLVLAY]
MIC [10]: 26 µM and 30 µM

SMILES: CC(C)C[C@H](NC(=O)[C@H](C)NC(=O)[C@H](CCCCN)NC(=O)[C@H](CCCCN)NC(=O)[C@H](CC(C)C)NC(=O)[C@H](Cc1ccccc1)NC(=O)[C@H](CCCCN)NC(=O)[C@H](C)NC(=O)[C@H](CC(C)C)NC(=O)[C@H](Cc1ccccc1)NC(=O)[C@H](CCCCN)NC(=O)[C@H](C)NC(=O)[C@@H](N)Cc1ccccc1)C(N)=O [FAKFLAKFLKKAL]
MIC [1]: 65.6 µM (≈ 99.9 µg/mL)
MIC [2]: 3.28 µM (≈ 5 µg/mL)

SMILES: CC(C)C[C@H](NC(=O)[C@H](CCCCN)NC(=O)[C@H](CCCCN)NC(=O)[C@H](C)NC(=O)[C@H](CC(C)C)NC(=O)[C@H](CCCCN)NC(=O)[C@H](C)NC(=O)[C@H](Cc1c[nH]c2ccccc12)NC(=O)[C@H](CC(C)C)NC(=O)[C@H](CCCCN)NC(=O)[C@H](C)NC(=O)[C@@H](N)Cc1ccccc1)C(N)=O [FAKLWAKLAKKL]
MIC [1]: 35.3 µM (≈ 50 µg/mL)
MIC [2]: 70.6 µM (≈ 99.9 µg/mL)

SMILES: CC(C)C[C@H](NC(=O)[C@H](C)NC(=O)[C@H](CCCCN)NC(=O)[C@H](CCCCN)NC(=O)[C@H](CC(C)C)NC(=O)[C@H](C)NC(=O)[C@H](CCCCN)NC(=O)[C@H](C)NC(=O)[C@H](CC(C)C)NC(=O)[C@H](CC(C)C)NC(=O)[C@H](CCCCN)NC(=O)[C@H](C)NC(=O)[C@@H](N)Cc1ccccc1)C(N)=O [FAKLLAKALKKAL]
MIC [1]: 7.07 µM (≈ 9.99 µg/mL)
MIC [2]: 3.53 µM (≈ 5 µg/mL)

Second part, the compound after the results:

MIC [3]: ≥ 40 µM
MIC [4]: 3.24 µM (≈ 5 µg/mL)
MIC [5]: 10 µM (≈ 15.4 µg/mL)
MIC [6]: 20 µM (≈ 30.9 µg/mL)
SMILES: CC[C@H](C)[C@H](NC(=O)[C@H](CCCN=C(N)N)NC(=O)[C@@H](N)CCCCN)C(=O)N[C@@H](C)C(=O)N[C@@H](CCC(N)=O)C(=O)N[C@@H](CCCN=C(N)N)C(=O)N[C@H](C(=O)N[C@@H](CCCCN)C(=O)N[C@@H](CC(=O)O)C(=O)N[C@@H](Cc1ccccc1)C(=O)N[C@@H](CC(C)C)C(=O)N[C@@H](CCCN=C(N)N)C(=O)O)[C@@H](C)CC [KRIAQRIKDFLR]

MIC [7]: ≥ 85.2 µM
MIC [4]: 5.33 µM (≈ 8 µg/mL)
MIC [5]: 42.6 µM (≈ 64 µg/mL)
MIC [8]: 85.2 µM (≈ 128 µg/mL)
SMILES: CC(C)C[C@H](NC(=O)CNC(=O)[C@H](C)NC(=O)[C@@H](NC(=O)[C@H](CC(N)=O)NC(=O)[C@H](CO)NC(=O)[C@H](CC(C)C)NC(=O)[C@@H](N)CC(C)C)C(C)C)C(=O)N[C@@H](CC(C)C)C(=O)N[C@@H](CCCCN)C(=O)N[C@@H](CCC(N)=O)C(=O)N[C@@H](Cc1ccccc1)C(=O)N[C@@H](C)C(=O)N[C@@H](CCCCN)C(=O)O [LLSNVAGLLKQFAK]

MIC [3]: 20 µM (≈ 32 µg/mL)
MIC [4]: 2.5 µM (≈ 4 µg/mL)
MIC [5]: 5 µM (≈ 8 µg/mL)
MIC [6]: 20 µM (≈ 32 µg/mL)
SMILES: CC[C@H](C)[C@H](NC(=O)[C@H](CCCN=C(N)N)NC(=O)[C@H](CCC(N)=O)NC(=O)[C@H](CCCCN)NC(=O)[C@@H](NC(=O)[C@H](CCCN=C(N)N)NC(=O)[C@@H](N)CCCCN)[C@@H](C)CC)C(=O)N[C@@H](CCCCN)C(=O)N[C@@H](CC(=O)O)C(=O)N[C@@H](Cc1ccccc1)C(=O)N[C@@H](CC(C)C)C(=O)N[C@@H](CCCN=C(N)N)C(=O)O [KRIKQRIKDFLR]

MIC [9]: ≥ 45.9 µM
MIC [4]: 61.2 µM (≈ 150 µg/mL)
SMILES: CC[C@H](C)[C@H](NC(=O)[C@@H](NC(=O)[C@@H](NC(=O)[C@@H]1CCCN1C(=O)[C@H](Cc1c[nH]c2ccccc12)NC(=O)[C@H](Cc1ccccc1)NC(=O)[C@H](CCCN=C(N)N)NC(=O)[C@H](CCCCN)NC(=O)[C@@H](NC(=O)[C@@H](N)CCCN=C(N)N)[C@@H](C)CC)C(C)C)C(C)C)C(=O)N[C@@H](CCCN=C(N)N)C(=O)N[C@H](C(=O)N[C@H](C(=O)N[C@H](C(=O)N[C@@H](C)C(=O)NCC(=O)N[C@@H](Cc1ccc(O)cc1)C(=O)N[C@@H](CC(N)=O)C(=O)N[C@@H](CC(C)C)C(=O)N[C@@H](Cc1ccc(O)cc1)C(=O)O)C(C)C)C(C)C)[C@@H](C)O [RIKRFWPVVIRTVVAGYNLY]

MIC (Bacillus subtilis): 1.54 µM (≈ 4.69 µg/mL)
MIC [9]: 0.769 µM (≈ 2.34 µg/mL)
MIC [4]: 1.15 µM (≈ 3.52 µg/mL)
MIC [8]: 3.08 µM (≈ 9.38 µg/mL)
SMILES: CC[C@H](C)[C@H](NC(=O)[C@H](C)NC(=O)[C@H](CCCN=C(N)N)NC(=O)[C@H](Cc1ccc(O)cc1)NC(=O)[C@H](CC(C)C)NC(=O)[C@H](CC(N)=O)NC(=O)[C@H](Cc1ccc(O)cc1)NC(=O)CNC(=O)[C@H](C)NC(=O)[C@@H](NC(=O)[C@@H](NC(=O)[C@@H](NC(=O)[C@H](CCCN=C(N)N)NC(=O)[C@@H](NC(=O)[C@@H](NC(=O)[C@@H](NC(=O)[C@@H]1CCCN1C(=O)[C@H](Cc1c[nH]c2ccccc12)NC(=O)[C@H](Cc1ccccc1)NC(=O)[C@H](CCCN=C(N)N)NC(=O)[C@H](CCCCN)NC(=O)[C@@H](NC(=O)[C@@H](N)CCCN=C(N)N)[C@@H](C)CC)C(C)C)C(C)C)[C@@H](C)CC)[C@@H](C)O)C(C)C)C(C)C)C(=O)N[C@@H](CCCCN)C(=O)N[C@@H](CCCCN)C(=O)O [RIKRFWPVVIRTVVAGYNLYRAIKK]

MIC [4]: 35 µM (≈ 50.3 µg/mL)
MIC [10]: 66 µM (≈ 94.9 µg/mL)
MIC [8]: 10 µM (≈ 14.4 µg/mL)
SMILES: CC(C)C[C@H](NC(=O)CN)C(=O)N[C@@H](CC(C)C)C(=O)N[C@@H](CC(=O)O)C(=O)N[C@@H](CC(C)C)C(=O)N[C@@H](CC(C)C)C(=O)N[C@@H](CCCCN)C(=O)N[C@@H](CC(C)C)C(=O)N[C@@H](CC(C)C)C(=O)N[C@@H](CC(C)C)C(=O)N[C@@H](CCCCN)C(=O)N[C@@H](C)C(=O)N[C@@H](C)C(=O)NCC(=O)O [GLLDLLKLLLKAAG]

MIC (Bacillus subtilis): 15 µM (≈ 25.8 µg/mL)
MIC (Escherichia coli): 15 µM (≈ 25.8 µg/mL)
SMILES: CC[C@H](C)[C@H](N)C(=O)N[C@@H](CC(N)=O)C(=O)N[C@@H](Cc1c[nH]c2ccccc12)C(=O)N[C@@H](CCCCN)C(=O)N[C@@H](CO)C(=O)N[C@H](C(=O)N[C@@H](Cc1ccccc1)C(=O)N[C@@H](CCC(=O)O)C(=O)N[C@@H](CCCCN)C(=O)N[C@H](C(=O)N[C@@H](CCCCN)C(=O)N[C@@H](CC(N)=O)C(=O)N[C@@H](CC(C)C)C(=O)N[C@H](C(N)=O)C(C)C)C(C)C)[C@@H](C)CC [INWKSIFEKVKNLV]

MIC [2]: 1.1 µM (≈ 3.02 µg/mL)
SMILES: CC(C)C[C@@H]1NC(=O)CNC(=O)[C@H]([C@@H](C)O)NC(=O)[C@@H]2CCCN2C(=O)[C@H](CC(C)C)NC(=O)CNC(=O)[C@H](CC(N)=O)NC(=O)[C@H](CC(N)=O)NC(=O)[C@H](Cc2ccc(O)cc2)NC(=O)[C@H](C(C)C)NC(=O)[C@H](CCCN=C(N)N)NC(=O)[C@@H](NC(=O)[C@H](CCCN=C(N)N)NC(=O)[C@H](Cc2cnc[nH]2)NC(=O)[C@H](CCCCN)NC(=O)[C@H](CCCCN)NC(=O)[C@H](CCCN=C(N)N)NC(=O)[C@@H](N)CCCCN)CSSC[C@@H](C(N)=O)NC(=O)[C@H](Cc2c[nH]c3ccccc23)NC(=O)[C@H](CCCN=C(N)N)NC(=O)[C@H](Cc2ccc(O)cc2)NC1=O [KRKKHRCRVYNNGLPTGLYRWC]
